Assay results published in PubChem BioAssay AID330 (DTP/NCI, 2004).
Where “and” joins values, the source holds several entries; their conditions need not be identical. Identical values can stand only once. Toxic doses and inconclusive results are not listed. How the source made its calls: active means survival T/C of 150% or more; inactive means T/C below 125% in these data.

System: P388 leukemia ip, CD2F1 mice, survival T/C
Assay: NCI In Vivo Anticancer Drug Screen. Data for tumor model P388 Leukemia (intraperitoneal) in CD2F1 (CDF1) mice
Details: endpoint: median survival time, higher = longer survival
In short: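 Mice carrying the transplanted tumor received test compound or vehicle. Survival was recorded in each group, and the value is the treated-group measurement divided by that of the vehicle-treated control group.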

[1] = dose: 100.0 mg/kg/injection, schedule: Q01DX001 (ip), vehicle: saline with Tween-80
[2] = dose: 200.0 mg/kg/injection, schedule: Q01DX009 (ip), vehicle: saline with Tween-80
[3] = dose: 12.5 mg/kg/injection, schedule: Q01DX009 (ip), vehicle: saline with Tween-80
[4] = dose: 25.0 mg/kg/injection, schedule: Q01DX009 (ip), vehicle: saline with Tween-80
[5] = dose: 50.0 mg/kg/injection, schedule: Q01DX009 (ip), vehicle: saline with Tween-80
[6] = dose: 50.0 mg/kg/injection, schedule: Q01DX009 (ip), vehicle: saline
[7] = dose: 100.0 mg/kg/injection, schedule: Q01DX009 (ip), vehicle: saline
[8] = dose: 200.0 mg/kg/injection, schedule: Q01DX009 (ip), vehicle: saline
[9] = dose: 100.0 mg/kg/injection, schedule: Q04DX003 (ip), vehicle: saline with Tween-80
[10] = dose: 50.0 mg/kg/injection, schedule: Q01DX005 (ip), vehicle: saline with Tween-80
[11] = dose: 100.0 mg/kg/injection, schedule: Q01DX005 (ip), vehicle: saline with Tween-80
[12] = dose: 200.0 mg/kg/injection, schedule: Q01DX005 (ip), vehicle: saline with Tween-80
[13] = dose: 100.0 mg/kg/injection, schedule: Q01DX009 (ip), vehicle: saline with Tween-80
[14] = dose: 25.0 mg/kg/injection, schedule: Q01DX009 (ip), vehicle: Klucel (hydroxypropylcellulose) (HPC)

Measured: T/C

CO[C@H]1C[C@@H]2CC[C@@H](C)[C@@](O)(O2)C(=O)C(=O)N2CCCC[C@H]2C(=O)O[C@H]([C@H](C)C[C@@H]2CC[C@@H](O)[C@H](OC)C2)CC(=O)[C@H](C)C=C(C)[C@@H](O)[C@@H](OC)C(=O)[C@H](C)C[C@H](C)/C=C/C=C/C=C1C
inactive: dose: 6.25 mg/kg/injection, schedule: Q01DX001 (ip), vehicle: clinical formulation 103 % of control | dose: 6.25 mg/kg/injection, schedule: Q01DX001 (iv), vehicle: clinical formulation 102 % of control | dose: 6.25 mg/kg/injection, schedule: Q01DX005 (iv), vehicle: clinical formulation 115 % of control | dose: 12.5 mg/kg/injection, schedule: Q01DX001 (ip), vehicle: clinical formulation 107 % of control | dose: 12.5 mg/kg/injection, schedule: Q01DX001 (iv), vehicle: clinical formulation 100 % of control | dose: 12.5 mg/kg/injection, schedule: Q01DX005 (iv), vehicle: clinical formulation 110 % of control | dose: 25.0 mg/kg/injection, schedule: Q01DX001 (ip), vehicle: clinical formulation 111 % of control | dose: 25.0 mg/kg/injection, schedule: Q01DX001 (iv), vehicle: clinical formulation 100 % of control | dose: 25.0 mg/kg/injection, schedule: Q01DX005 (iv), vehicle: clinical formulation 113 % of control | dose: 50.0 mg/kg/injection, schedule: Q01DX001 (ip), vehicle: clinical formulation 118 % of control | dose: 50.0 mg/kg/injection, schedule: Q01DX001 (iv), vehicle: clinical formulation 106 % of control | dose: 50.0 mg/kg/injection, schedule: Q01DX005 (iv), vehicle: clinical formulation 113 % of control | dose: 50.0 mg/kg/injection, schedule: Q01DX005 (oral), vehicle: saline with Tween-80 110 % of control | dose: 50.0 mg/kg/injection, schedule: Q01DX009 (oral), vehicle: saline with Tween-80 116 % of control | dose: 100.0 mg/kg/injection, schedule: Q01DX001 (ip), vehicle: clinical formulation 117 % of control | [1] 124 % of control | dose: 100.0 mg/kg/injection, schedule: Q01DX001 (iv), vehicle: clinical formulation 104 % of control | dose: 100.0 mg/kg/injection, schedule: Q01DX005 (ip), vehicle: clinical formulation 110 % of control | dose: 100.0 mg/kg/injection, schedule: Q01DX005 (oral), vehicle: saline with Tween-80 112 % of control | dose: 100.0 mg/kg/injection, schedule: Q01DX009 (oral), vehicle: saline with Tween-80 119 % of control | dose: 200.0 mg/kg/injection, schedule: Q01DX001 (ip), vehicle: clinical formulation 118 % of control | dose: 200.0 mg/kg/injection, schedule: Q01DX005 (oral), vehicle: saline with Tween-80 108 % of control | [2] 122 % of control | dose: 200.0 mg/kg/injection, schedule: Q01DX009 (oral), vehicle: saline with Tween-80 112 % of control | dose: 400.0 mg/kg/injection, schedule: Q01DX005 (oral), vehicle: saline with Tween-80 118 % of control | dose: 400.0 mg/kg/injection, schedule: Q01DX009 (oral), vehicle: saline with Tween-80 116 % of control | dose: 800.0 mg/kg/injection, schedule: Q01DX005 (oral), vehicle: saline with Tween-80 116 % of control | dose: 800.0 mg/kg/injection, schedule: Q01DX009 (oral), vehicle: saline with Tween-80 116 % of control

Cc1nc2c(sc(=N)n2-c2ccccc2)c(=O)[nH]1
inactive: [3] 115 % of control | [4] 106 % of control | [5] 103 % of control

CN1CC2Cc3ccc(O)cc3C(C)(C2)C1 (configuration not stated)
inactive: dose: 12.5 mg/kg/injection, schedule: Q01DX009 (ip), vehicle: saline 98 % of control | dose: 25.0 mg/kg/injection, schedule: Q01DX009 (ip), vehicle: saline 96 % of control | [5] 87 % of control | [6] 98 % of control

COC(=O)C12CC3CC(CC(NC(=O)C(Cc4ccccc4)NC(=O)CN)(C3)C1)C2 (configuration not stated)
inactive: dose: 60.0 mg/kg/injection, schedule: Q01DX005 (ip), vehicle: saline 94 % of control | dose: 120.0 mg/kg/injection, schedule: Q01DX005 (ip), vehicle: saline 99 % of control | dose: 240.0 mg/kg/injection, schedule: Q01DX005 (ip), vehicle: saline 94 % of control

COc1ccc(-c2nc(C)nc3c2Cc2c(ccc4ccccc24)O3)cc1
inactive: [6] 98 % of control | [7] 102 % of control | [8] 102 % of control

CC(c1ccccc1)N1OC1(C)C (configuration not stated)
inactive: dose: 12.5 mg/kg/injection, schedule: Q01DX005 (ip), vehicle: Klucel (hydroxypropylcellulose) (HPC) 101 % of control | dose: 25.0 mg/kg/injection, schedule: Q01DX005 (ip), vehicle: Klucel (hydroxypropylcellulose) (HPC) 106 % of control | dose: 50.0 mg/kg/injection, schedule: Q01DX005 (ip), vehicle: Klucel (hydroxypropylcellulose) (HPC) 102 % of control

c1ccc2c(CN3CCCCC3)c[nH]c2c1
inactive: dose: 50.0 mg/kg/injection, schedule: Q04DX003 (ip), vehicle: saline with Tween-80 100 % of control | [9] 90 % of control

N=C1SCC(=O)C1C(=O)O (configuration not stated)
inactive: [10] 105 % of control | [11] 119 % of control | [12] 110 % of control

ClC1c2ccccc2-c2nsnc2C1Cl (configuration not stated)
inactive: [4] 107 % of control | [5] 90 % of control | [13] 90 % of control | [2] 100 % of control

CN(C)/C(=N\N=C(/c1ccc(Cl)cc1)N(C)C)c1ccc(Cl)cc1
inactive: [9] 97 % of control | dose: 200.0 mg/kg/injection, schedule: Q04DX003 (ip), vehicle: saline with Tween-80 105 % of control | dose: 400.0 mg/kg/injection, schedule: Q04DX003 (ip), vehicle: saline with Tween-80 105 % of control

O=C1CSC(c2ccoc2)N1N1C(=O)CSC1c1ccoc1 (configuration not stated)
inactive: [10] 90 % of control | [11] 87 % of control | [12] 90 % of control

COc1cc2oc3ccccc3c(=O)c2cc1CSc1ccccc1N
inactive: [3] 89 % of control and 96 % of control | [4] 93 % of control and 98 % of control | [5] 92 % of control and 96 % of control | [13] 87 % of control and 89 % of control

CCC(c1ccc(OC)cc1)C(NCC(=O)NNC(=S)Nc1cccc(C)c1)c1ccc(OC)cc1 (configuration not stated)
inactive: [1] 90 % of control | dose: 200.0 mg/kg/injection, schedule: Q01DX001 (ip), vehicle: saline with Tween-80 96 % of control

O=[N+]([O-])c1ccc(NS(=O)(=O)c2cccs2)c([N+](=O)[O-])c1
inactive: [3] 105 % of control | [4] 103 % of control | [5] 108 % of control

CC1(c2ccccc2)CCC(=O)NC1=O (configuration not stated)
inactive: dose: 60.0 mg/kg/injection, schedule: Q01DX005 (ip), vehicle: saline with Tween-80 102 % of control | dose: 120.0 mg/kg/injection, schedule: Q01DX005 (ip), vehicle: saline with Tween-80 101 % of control | dose: 240.0 mg/kg/injection, schedule: Q01DX005 (ip), vehicle: saline with Tween-80 106 % of control

CC(C)CC([N+](C)(C)C)P(=O)([O-])O (configuration not stated)
inactive: [7] 100 % of control | [8] 95 % of control | dose: 400.0 mg/kg/injection, schedule: Q01DX009 (ip), vehicle: saline 100 % of control

C=CCN1CSC(=S)N(CC=C)C1
inactive: [4] 98 % of control | [5] 119 % of control and 94 % of control

N#CSc1ccc2nc(NC(NC=O)C(Cl)(Cl)Cl)sc2c1 (configuration not stated)
inactive: dose: 6.25 mg/kg/injection, schedule: Q01DX009 (ip), vehicle: Klucel (hydroxypropylcellulose) (HPC) 105 % of control | dose: 12.5 mg/kg/injection, schedule: Q01DX009 (ip), vehicle: Klucel (hydroxypropylcellulose) (HPC) 110 % of control | [14] 103 % of control

COc1cccc(CC#N)c1O
inactive: [14] 105 % of control | dose: 50.0 mg/kg/injection, schedule: Q01DX009 (ip), vehicle: Klucel (hydroxypropylcellulose) (HPC) 100 % of control | dose: 100.0 mg/kg/injection, schedule: Q01DX009 (ip), vehicle: Klucel (hydroxypropylcellulose) (HPC) 106 % of control
